From patent US20120121591A1 (priority 2009, published 2012)
Like-named read-outs stand apart in the source and are kept apart here.

What was measured:
Assay type in all cases: cell-based
hKv1.3 = hKv1.3 (Homo sapiens, UniProt P22001); test: cell-based; conditions: Kv1.3 (IWQ) IC50 (nM, Avg)
[1] = tested on: IFN-g secretion from T cells in human whole blood
[2] = tested on: IL-2 secretion from T cells in human whole blood
[3] = read-out: WB (IFNg) IC50 (nM, Avg)
[4] = read-out: WB (IL-2) IC50 (nM, Avg)

hKv1.3, sequence (P22001 whole entry): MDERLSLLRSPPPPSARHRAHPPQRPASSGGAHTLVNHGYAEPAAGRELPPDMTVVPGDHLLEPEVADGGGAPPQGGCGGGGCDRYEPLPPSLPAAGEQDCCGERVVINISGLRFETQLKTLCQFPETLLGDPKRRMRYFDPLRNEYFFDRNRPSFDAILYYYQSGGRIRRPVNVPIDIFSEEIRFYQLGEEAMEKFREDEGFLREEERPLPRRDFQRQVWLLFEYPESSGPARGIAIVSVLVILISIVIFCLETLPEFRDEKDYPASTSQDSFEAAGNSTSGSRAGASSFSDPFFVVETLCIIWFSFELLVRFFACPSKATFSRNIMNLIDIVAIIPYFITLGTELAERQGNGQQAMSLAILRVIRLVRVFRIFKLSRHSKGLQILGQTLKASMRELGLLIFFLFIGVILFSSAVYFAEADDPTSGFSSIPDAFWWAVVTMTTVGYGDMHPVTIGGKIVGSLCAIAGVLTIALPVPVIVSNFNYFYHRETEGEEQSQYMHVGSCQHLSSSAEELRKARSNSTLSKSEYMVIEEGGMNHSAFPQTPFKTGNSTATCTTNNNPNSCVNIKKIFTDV

SMILES	IC50 (hKv1.3)	IC50 ([1]; read-out: WB (IFNg) IC50)	IC50 [1, 3]	IC50 ([2]; read-out: WB (IL-2) IC50)	IC50 [2, 4]
CC[C@H](C)[C@@H]1NC(=O)[C@@H](NC(=O)[C@H](CO)NC(=O)[C@@H](N)CCCNC(=N)N)CSSC[C@@H](C(=O)O)NC(=O)[C@H]([C@@H](C)O)NC(=O)CNC(=O)[C@@H]2CSSC[C@@H]3NC(=O)[C@H](CCC(N)=O)NC(=O)[C@H](Cc4ccccc4)NC(=O)[C@H](C)NC(=O)[C@H]([C@@H](C)O)NC(=O)[C@H](CSSC[C@H](NC(=O)[C@H](Cc4ccccc4)NC(=O)[C@H](CO)NC(=O)[C@H](CC(C)C)NC(=O)[C@H](CCCNC(=N)N)NC(=O)[C@H](Cc4ccc(O)cc4)NC(=O)[C@H](CCCNC(=N)N)NC(=O)[C@H](CCSC)NC(=O)[C@H](CO)NC(=O)[C@H](Cc4cnc[nH]4)NC(=O)[C@H](CCCCN)NC3=O)C(=O)N[C@@H](CCCNC(=N)N)C(=O)N[C@@H](CCCCN)C(=O)N[C@@H]([C@@H](C)O)C(=O)N2)NC(=O)[C@H](CCCNC(=N)N)NC(=O)[C@H](CO)NC(=O)[C@H](CCCCN)NC(=O)[C@@H]2CCCN2C(=O)[C@H]([C@@H](C)CC)NC(=O)[C@H]([C@@H](C)O)NC(=O)[C@H](CC(=O)O)NC1=O [[Arg22]ShK]	18.7 nM	–	–	–	–
CC[C@H](C)[C@@H]1NC(=O)[C@@H](NC(=O)[C@H](CO)NC(=O)[C@@H](N)CCCNC(=N)N)CSSC[C@@H](C(=O)O)NC(=O)[C@H]([C@@H](C)O)NC(=O)CNC(=O)[C@@H]2CSSC[C@@H]3NC(=O)[C@H](CCC(N)=O)NC(=O)[C@H](Cc4ccccc4)NC(=O)[C@H](C)NC(=O)[C@H]([C@@H](C)O)NC(=O)[C@H](CSSC[C@H](NC(=O)[C@H](Cc4ccccc4)NC(=O)[C@H](CO)NC(=O)[C@H](CC(C)C)NC(=O)[C@H](CCCNC(=N)N)NC(=O)[C@H](Cc4ccc(O)cc4)NC(=O)[C@H](CCCCN)NC(=O)[C@H](CCSC)NC(=O)[C@H](CO)NC(=O)[C@H](Cc4c[nH]cn4)NC(=O)[C@H](CCCCN)NC3=O)C(=O)N[C@@H](CCCNC(=N)N)C(=O)N[C@@H](CCCCN)C(=O)N[C@@H]([C@@H](C)O)C(=O)N2)NC(=O)[C@H](CCCNC(=N)N)NC(=O)[C@H](CO)NC(=O)[C@H](CCCCN)NC(=O)[C@@H]2CCCN2C(=O)[C@H]([C@@H](C)CC)NC(=O)[C@H]([C@@H](C)O)NC(=O)[C@H](CC(=O)O)NC1=O [ShK(1-35), reference compound]	–	0.078 nM	0.052 nM	0.067 nM	0.043 nM
CC[C@H](C)[C@@H]1NC(=O)[C@@H](NC(=O)[C@H](CO)NC(=O)[C@@H](N)CCCNC(=N)N)CSSC[C@@H](C(=O)O)NC(=O)[C@H]([C@@H](C)O)NC(=O)CNC(=O)[C@@H]2CSSC[C@@H]3NC(=O)[C@H](CCC(N)=O)NC(=O)[C@H](Cc4ccccc4)NC(=O)[C@H](C)NC(=O)[C@H](C)NC(=O)[C@H](CSSC[C@H](NC(=O)[C@H](Cc4ccccc4)NC(=O)[C@H](CO)NC(=O)[C@H](CC(C)C)NC(=O)[C@H](CCCNC(=N)N)NC(=O)[C@H](Cc4ccc(O)cc4)NC(=O)[C@H](CCCCN)NC(=O)[C@H](CCSC)NC(=O)[C@H](CO)NC(=O)[C@H](Cc4c[nH]cn4)NC(=O)[C@H](CCCCN)NC3=O)C(=O)N[C@@H](CCCNC(=N)N)C(=O)N[C@@H](CCCCN)C(=O)N[C@@H]([C@@H](C)O)C(=O)N2)NC(=O)[C@H](CCCNC(=N)N)NC(=O)[C@H](CO)NC(=O)[C@H](CCCCN)NC(=O)[C@@H]2CCCN2C(=O)[C@H]([C@@H](C)CC)NC(=O)[C@H]([C@@H](C)O)NC(=O)[C@H](CC(=O)O)NC1=O [[Ala13]ShK]	–	–	0.954 nM	–	0.582 nM
CC[C@H](C)[C@@H]1NC(=O)[C@@H](NC(=O)[C@H](CO)NC(=O)[C@@H](N)CCCNC(=N)N)CSSC[C@@H](C(=O)O)NC(=O)[C@H]([C@@H](C)O)NC(=O)CNC(=O)[C@@H]2CSSC[C@@H]3NC(=O)[C@H](CCC(N)=O)NC(=O)[C@H](Cc4ccccc4)NC(=O)[C@H](C)NC(=O)[C@H](Cc4cccc5ccccc45)NC(=O)[C@H](CSSC[C@H](NC(=O)[C@H](Cc4ccccc4)NC(=O)[C@H](CO)NC(=O)[C@H](CC(C)C)NC(=O)[C@H](CCCNC(=N)N)NC(=O)[C@H](Cc4ccc(O)cc4)NC(=O)[C@H](CCCCN)NC(=O)[C@H](CCSC)NC(=O)[C@H](CO)NC(=O)[C@H](Cc4c[nH]cn4)NC(=O)[C@H](CCCCN)NC3=O)C(=O)N[C@@H](CCCNC(=N)N)C(=O)N[C@@H](CCCCN)C(=O)N[C@@H]([C@@H](C)O)C(=O)N2)NC(=O)[C@H](CCCNC(=N)N)NC(=O)[C@H](CO)NC(=O)[C@H](CCCCN)NC(=O)[C@@H]2CCCN2C(=O)[C@H]([C@@H](C)CC)NC(=O)[C@H]([C@@H](C)O)NC(=O)[C@H](CC(=O)O)NC1=O [[1-Nal13]ShK]	–	–	4.86 nM	–	3.56 nM
CC[C@H](C)[C@@H]1NC(=O)[C@@H](NC(=O)[C@H](CO)NC(=O)[C@@H](N)CCCNC(=N)N)CSSC[C@@H](C(=O)O)NC(=O)[C@H]([C@@H](C)O)NC(=O)CNC(=O)[C@@H]2CSSC[C@@H]3NC(=O)[C@H](CCC(N)=O)NC(=O)[C@H](Cc4ccccc4)NC(=O)[C@H](C)NC(=O)[C@H]([C@@H](C)O)NC(=O)[C@H](CSSC[C@H](NC(=O)[C@H](Cc4ccccc4)NC(=O)[C@H](CO)NC(=O)[C@H](CC(C)C)NC(=O)[C@H](CCCNC(=N)N)NC(=O)[C@H](Cc4ccc(O)cc4)NC(=O)[C@H](CCCCN)NC(=O)[C@H](CCSC)NC(=O)[C@H](C)NC(=O)[C@H](Cc4c[nH]cn4)NC(=O)[C@H](CCCCN)NC3=O)C(=O)N[C@@H](CCCNC(=N)N)C(=O)N[C@@H](CCCCN)C(=O)N[C@@H]([C@@H](C)O)C(=O)N2)NC(=O)[C@H](CCCNC(=N)N)NC(=O)[C@H](CO)NC(=O)[C@H](CCCCN)NC(=O)[C@@H]2CCCN2C(=O)[C@H]([C@@H](C)CC)NC(=O)[C@H]([C@@H](C)O)NC(=O)[C@H](CC(=O)O)NC1=O [[Ala20]ShK]	–	–	0.825 nM	–	0.3 nM
CC[C@H](C)[C@@H]1NC(=O)[C@H]([C@@H](C)O)NC(=O)[C@H](CC(=O)O)NC(=O)[C@H](CCCNC(=N)N)NC(=O)[C@@H](NC(=O)[C@H](CO)NC(=O)[C@@H](N)CCCNC(=N)N)CSSC[C@@H](C(=O)O)NC(=O)[C@H]([C@@H](C)O)NC(=O)CNC(=O)[C@@H]2CSSC[C@@H]3NC(=O)[C@H](CCC(N)=O)NC(=O)[C@H](Cc4ccccc4)NC(=O)[C@H](C)NC(=O)[C@H]([C@@H](C)O)NC(=O)[C@H](CSSC[C@H](NC(=O)[C@H](Cc4ccccc4)NC(=O)[C@H](CO)NC(=O)[C@H](CC(C)C)NC(=O)[C@H](CCCNC(=N)N)NC(=O)[C@H](Cc4ccc(O)cc4)NC(=O)[C@H](CCCCN)NC(=O)[C@H](CCSC)NC(=O)[C@H](CO)NC(=O)[C@H](Cc4c[nH]cn4)NC(=O)[C@H](CCCCN)NC3=O)C(=O)N[C@@H](CCCNC(=N)N)C(=O)N[C@@H](CCCCN)C(=O)N[C@@H]([C@@H](C)O)C(=O)N2)NC(=O)[C@H](CCCNC(=N)N)NC(=O)[C@H](CO)NC(=O)[C@H](CCCCN)NC(=O)[C@@H]2CCCN2C1=O [[Arg4]ShK]	–	–	0.081 nM	–	0.051 nM
CC[C@H](C)[C@@H]1NC(=O)[C@@H](NC(=O)[C@H](CO)NC(=O)[C@@H](N)CCCNC(=N)N)CSSC[C@@H](C(=O)O)NC(=O)[C@H]([C@@H](C)O)NC(=O)CNC(=O)[C@@H]2CSSC[C@@H]3NC(=O)[C@H](CCCCN)NC(=O)[C@H](Cc4ccccc4)NC(=O)[C@H](C)NC(=O)[C@H]([C@@H](C)O)NC(=O)[C@H](CSSC[C@H](NC(=O)[C@H](Cc4cccc5ccccc45)NC(=O)[C@H](CO)NC(=O)[C@H](CC(C)C)NC(=O)[C@H](CCCNC(=N)N)NC(=O)[C@H](Cc4ccc(O)cc4)NC(=O)[C@H](CCCCN)NC(=O)[C@H](CCSC)NC(=O)[C@H](CO)NC(=O)[C@H](Cc4c[nH]cn4)NC(=O)[C@H](CCCCN)NC3=O)C(=O)N[C@@H](CCCCN)C(=O)N[C@@H](CCCNC(=N)N)C(=O)N[C@@H]([C@@H](C)O)C(=O)N2)NC(=O)[C@H](CCCNC(=N)N)NC(=O)[C@H](CO)NC(=O)[C@H](CCCCN)NC(=O)[C@@H]2CCCN2C(=O)[C@H]([C@@H](C)CC)NC(=O)[C@H]([C@@H](C)O)NC(=O)[C@H](CC(=O)O)NC1=O [[Lys16,29; 1-Na127;Arg30]ShK]	–	–	3.83 nM	–	3.37 nM
CC[C@H](C)[C@@H]1NC(=O)[C@@H](NC(=O)[C@H](CO)NC(=O)[C@@H](N)CCCNC(=N)N)CSSC[C@@H](C(=O)O)NC(=O)[C@H]([C@@H](C)O)NC(=O)CNC(=O)[C@@H]2CSSC[C@@H]3NC(=O)[C@H](CCCCN)NC(=O)[C@H](Cc4ccccc4)NC(=O)[C@H](C)NC(=O)[C@H]([C@@H](C)O)NC(=O)[C@H](CSSC[C@H](NC(=O)[C@H](Cc4ccccc4)NC(=O)[C@H](CO)NC(=O)[C@H](CC(C)C)NC(=O)[C@H](CCCNC(=N)N)NC(=O)[C@H](Cc4ccc(O)cc4)NC(=O)[C@H](CCCCN)NC(=O)[C@H](CCSC)NC(=O)[C@H](CO)NC(=O)[C@H](Cc4c[nH]cn4)NC(=O)[C@H](CCCCN)NC3=O)C(=O)N[C@@H](CCCNC(=N)N)C(=O)N[C@@H](CCCNC(=N)N)C(=O)N[C@@H]([C@@H](C)O)C(=O)N2)NC(=O)[C@H](CCCNC(=N)N)NC(=O)[C@H](CO)NC(=O)[C@H](CCCCN)NC(=O)[C@@H]2CCCN2C(=O)[C@H]([C@@H](C)CC)NC(=O)[C@H]([C@@H](C)O)NC(=O)[C@H](CC(=O)O)NC1=O [[Lys16,Arg30]ShK]	–	–	0.189 nM	–	0.169 nM
CC[C@H](C)[C@@H]1NC(=O)[C@@H](NC(=O)[C@H](CO)NC(=O)[C@@H](N)CCCNC(=N)N)CSSC[C@@H](C(=O)O)NC(=O)[C@H]([C@@H](C)O)NC(=O)CNC(=O)[C@@H]2CSSC[C@@H]3NC(=O)[C@H](CCC(N)=O)NC(=O)[C@H](Cc4ccccc4)NC(=O)[C@H](C)NC(=O)[C@H]([C@@H](C)O)NC(=O)[C@H](CSSC[C@H](NC(=O)[C@H](Cc4ccccc4)NC(=O)[C@H](CO)NC(=O)[C@H](CC(C)C)NC(=O)[C@H](CCCNC(=N)N)NC(=O)[C@H](Cc4ccc(O)cc4)NC(=O)[C@H](CCCCN)NC(=O)[C@H](CCSC)NC(=O)[C@H](CO)NC(=O)[C@H](Cc4c[nH]cn4)NC(=O)[C@H](CCCNC(=N)N)NC3=O)C(=O)N[C@@H](CCCNC(=N)N)C(=O)N[C@@H](CCCCN)C(=O)N[C@@H]([C@@H](C)O)C(=O)N2)NC(=O)[C@H](CCCNC(=N)N)NC(=O)[C@H](CO)NC(=O)[C@H](CCCCN)NC(=O)[C@@H]2CCCN2C(=O)[C@H]([C@@H](C)CC)NC(=O)[C@H]([C@@H](C)O)NC(=O)[C@H](CC(=O)O)NC1=O [[Arg18]ShK]	–	–	0.023 nM	–	0.012 nM
